US4517299A, “Acetylesterases” (Fujisawa Pharmaceutical Co., Ltd., priority 1980, dated 1985)

Assays:
[1] = system: Aureobasidium pullulans IFO 4466 Acetylesterase 4466-I (Enzyme solution A); assay: Determination of Km, hydrolysis of cephalosporin C to deacetylcephalosporin C (HPLC); assay type: biochemical; conditions: 0.05M acetate buffer pH 4.0, 30° C., one hour, cephalosporin C sodium dihydrate 0.2-5%, read-out: Km (substrate cephalosporin C)
Experimental: (§1) (In case that the substrate is cephalosporin C)
(§2) Km values of Acetylesterase 4466-I and Acetylesterase 4466-II were determined in the following method.
(§3) To 0.05M acetate buffer solution (pH 4.0) containing cephalosporin C sodium dihydrate in a various concentration (0.2-5%)(4.5 ml), was added enzyme solution (0.5 ml).
(§4) The reaction mixture was incubated on a shaker at 30° C. for an hour. Subsequently, produced deacetyl cephalosporin C and unreacted cephalosporin C were determined by high pressure liquid chromatography. Km values of each esterase were calculated in a conventional manner.

[2] = system: Aureobasidium pullulans IFO 4466 Acetylesterase 4466-II (Enzyme solution B); assay: as above; assay type: biochemical; conditions: 0.05M acetate buffer pH 4.0, 30° C., one hour, cephalosporin C sodium dihydrate 0.2-5%, read-out: Km (substrate cephalosporin C)
Experimental: as §1, §2, §3, §4

In the case of `CC(=O)OCC1=C(C(=O)O)N2C(=O)[C@@H](NC(=O)CCC[C@@H](N)C(=O)O)[C@H]2SC1` [cephalosporin C], the Km [1] is reported as 11.5 mM and the Km [2] is reported as 13.7 mM.
